From the supplement of paper PMC10307832

Experiments:
Test in all cases: relative viability (nuclei count vs DMSO), 5 days (fraction); higher = more cells survive
Vemurafenib + Foretinib = compound: CCCS(=O)(=O)Nc1ccc(F)c(C(=O)c2c[nH]c3ncc(-c4ccc(Cl)cc4)cc23)c1F [Vemurafenib] + COc1cc2c(Oc3ccc(NC(=O)C4(C(=O)Nc5ccc(F)cc5)CC4)cc3F)ccnc2cc1OCCCN1CCOCC1 [Foretinib] (partner 0.25 µM)
How it was run: (§1)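 Each reported value is a median over duplicate plates. It expresses relative viability: treated-well nuclei count divided by vehicle-well nuclei count. Lung cancer cell lines in 1536-well plates were dosed by pin tool a day after seeding, alone with one drug or with a fixed anchor-drug dose plus five library-drug doses (not always all listed) in √10 steps, and nuclei were counted after 5 days.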

Vemurafenib + AZD7762 = compound: CCCS(=O)(=O)Nc1ccc(F)c(C(=O)c2c[nH]c3ncc(-c4ccc(Cl)cc4)cc23)c1F [Vemurafenib] + NC(=O)Nc1cc(-c2cccc(F)c2)sc1C(=O)N[C@H]1CCCNC1 [AZD7762] (partner 0.2 µM)
How it was run: as §1

OSI-027 + Crizotinib = compound: COc1cccc2cc(-c3nc([C@H]4CC[C@H](C(=O)O)CC4)n4ncnc(N)c34)[nH]c12 [OSI-027] + C[C@@H](Oc1cc(-c2cnn(C3CCNCC3)c2)cnc1N)c1c(Cl)ccc(F)c1Cl [Crizotinib] (partner 1 µM)
How it was run: as §1

Vemurafenib + Pictilisib = compound: CCCS(=O)(=O)Nc1ccc(F)c(C(=O)c2c[nH]c3ncc(-c4ccc(Cl)cc4)cc23)c1F [Vemurafenib] + CS(=O)(=O)N1CCN(Cc2cc3nc(-c4cccc5[nH]ncc45)nc(N4CCOCC4)c3s2)CC1 [Pictilisib] (partner 1 µM)
How it was run: as §1

Cell Line | relative viability (Vemurafenib + Foretinib; first compound 0.03162 µM) | relative viability (Vemurafenib + Foretinib; first compound 0.1 µM) | relative viability (Vemurafenib + Foretinib; first compound 0.3162 µM) | relative viability (Vemurafenib + Foretinib; first compound 1 µM) | relative viability (Vemurafenib + AZD7762; first compound 0.03162 µM) | relative viability (Vemurafenib + AZD7762; first compound 0.1 µM) | relative viability (Vemurafenib + AZD7762; first compound 0.3162 µM) | relative viability (Vemurafenib + AZD7762; first compound 1 µM) | relative viability (OSI-027 + Crizotinib; first compound 0.01 µM) | relative viability (OSI-027 + Crizotinib; first compound 0.03162 µM) | relative viability (OSI-027 + Crizotinib; first compound 0.1 µM) | relative viability (OSI-027 + Crizotinib; first compound 0.3162 µM) | relative viability (OSI-027 + Crizotinib; first compound 1 µM) | relative viability (Vemurafenib + Pictilisib; first compound 0.03162 µM) | relative viability (Vemurafenib + Pictilisib; first compound 0.1 µM) | relative viability (Vemurafenib + Pictilisib; first compound 0.3162 µM) | relative viability (Vemurafenib + Pictilisib; first compound 1 µM)
HOP-62 | 1.06 | 1.08 | 0.916 | 1.05 | 0.551 | 0.558 | 0.395 | 0.668 | 1.02 | 0.922 | 0.999 | 1.36 | 0.428 | 0.739 | 0.589 | 0.517 | 0.458
IA-LM | 1.16 | 1.26 | 1.08 | 0.981 |  |  |  |  | 0.96 | 0.578 | 0.78 | 0.249 | 0.139 | 0.309 | 0.358 | 0.758 | 0.476
LC-2-ad | 0.859 | 0.705 |  | 1.01 | 0.831 | 0.615 | 0.749 | 0.818 | 0.49 | 0.483 | 0.458 | 0.474 | 0.384 | 0.436 | 0.396 | 0.635 | 0.432
LCLC-97TM1 | 0.974 | 0.854 | 0.985 | 0.971 | 0.286 | 0.298 | 0.326 | 0.342 | 0.246 | 0.407 | 0.322 | 0.267 | 0.105 | 0.195 | 0.194 | 0.39 | 0.149
LCLC-103H | 0.668 | 0.685 | 0.704 | 0.69 | 0.757 | 0.741 | 0.617 | 0.694 | 1.07 | 1.03 | 1.18 | 0.948 | 1.01 | 0.585 | 0.506 | 0.584 | 0.59
